Measurements from PMC12040169 (PLOS Biology, 2025).

Assay: in vitro
Details: human, hela cells, % viability

Compound | viability at 28.5 h, 10 µM [%] | viability at 28.5 h, 10 µM (bulk resorufin, single well) [%]
CN1CCC2CN(CCCC(c3ccc(F)cc3)c3ccc(F)cc3)CCN2C1=O (stereo not drawn) [CBK024865C] | 89.9 | 
CCCCN1CCC2CN(CCCC(c3ccc(F)cc3)c3ccc(F)cc3)CCN2C1=O (stereo not drawn) [CBK024880C] | 99.5 | 
CCN(C)C(=O)N1CCN(CCCC(c2ccc(F)cc2)c2ccc(F)cc2)CC1 [CBK024910C] | 90.6 | 
CCNC(=O)N1CCN(CCOC(c2ccc(F)cc2)c2ccc(F)cc2)CC1 [CBK024943C] | 95.6 | 
CCN1CCC2CN(CCCC(c3ccc(F)cc3)c3ccc(F)cc3)CCN2C1=O (stereo not drawn) [CBK024996] | 92.7 | 
CCOC(=O)N1CCN(CCCCc2ccc(F)cc2)CC1 [CBK025002C] | 105 | 
CCC(=O)N1CCN(CCCC(=O)c2ccc(F)cc2)CC1 [CBK025017C] | 108 | 
CC1CN(C(=O)c2ccccc2)CC(C)N1CCCCc1ccc(F)cc1 (stereo not drawn) [CBK025019C] | 97.9 | 
CCN(CC)C(=O)N1CCN(CCCC(=O)c2ccc(F)cc2)CC1 [CBK025042C] | 85.4 | 
OC1(CCCN2CCOCC2)C2CCCC1CN(Cc1ccccc1)C2 (stereo not drawn) [CBK025076C] | 115 | 
O=C(NC1CC1)N1CCN(CCCOc2ccc(F)cc2)CC1 [CBK025077C] | 111 | 
Cc1cccc(N2CCN(CCCC(c3ccc(F)cc3)c3ccc(F)cc3)CC2)n1 [CBK025113C] | 93.9 | 
Fc1ccc(N(CCCN2CCN(c3ncccn3)CC2)c2ccc(F)cc2)cc1 [CBK025127C] | 98.8 | 
Cc1ccc(C(=O)C2(O)CCN(CCCC(c3ccc(F)cc3)c3ccc(F)cc3)CC2)cc1 [CBK025221C] | 90.6 | 
CCC(=O)OC1(C(=O)c2ccc(F)cc2)CCN(CCCC(c2ccc(F)cc2)c2ccc(F)cc2)CC1 [CBK025227C] | 84.3 | 
C#CC1(OC(=O)CC)CCN(CCCC(=O)c2ccc(F)cc2)CC1 [CBK025277C] | 108 | 
CNC(=O)c1cccnc1N1CCN(CCCC(c2ccc(F)cc2)c2ccc(F)cc2)CC1 [CBK025309C] | 95 | 
NC(=O)c1cccnc1N1CCNCC1 [CBK025310C] | 85.8 | 
CC(=O)Nc1cc(C)c(C)cc1NC(C)=O [CBK025366] | 97.5 | 
CNc1nc(C(C)(C)C)cs1 [CBK025373] | 88.2 | 
Cc1[nH]nc(C(F)(F)F)c1Cl [CBK025387] | 113 | 
c1ccc2[nH]c(SCCCCCSc3nc4ccccc4[nH]3)nc2c1 [CBK025418] | 101 | 
Nc1nnc(-c2ccc(Cl)cc2)[nH]1 [CBK025436] | 118 | 
c1ccc2oc(SCCCCSc3nc4ccccc4o3)nc2c1 [CBK025465] | 97.7 | 
COc1ccc([C@@]23CC[C@@H](NC(=S)NC(C)=O)C[C@@H]2N(Cc2ccccc2)CC3)cc1OC [CBK025503T] | 90.2 | 
CCCNCC(=O)N1CCN(C(=O)c2ccc(C)cc2)CC1 [CBK025546] | 103 | 

Compound | viability at 28.5 h, 10 µM [%] | viability at 28.5 h, 10 µM (bulk resorufin, single well) [%]
CC1(C)CC(CN)(c2ccccc2)CCO1 (stereo not drawn) [CBK025559C] | 94.9 | 
COc1ccc(C(=O)Nc2nnc[nH]2)cc1 [CBK025569] | 90.8 | 
CC(C)(C)NCC(O)COc1ccc(Cl)cc1Cl (stereo not drawn) [CBK025597C] | 101 | 
c1ccc2c(CSc3ncn[nH]3)cccc2c1 [CBK025610] | 114 | 
CN1CCN(c2snnc2CO)CC1 [CBK025626] | 99.5 | 
Cc1nc2[nH]c(=O)nc(N)c2nc1C [CBK025658] | 83.3 | 
C/C(=N\NC(=O)c1nonc1N)c1ccc(Cl)cc1 [CBK025664] | 107 | 
COc1nc2nc(N)nc(N)c2nc1C [CBK025669] | 90.1 | 
Cc1ccc(N2C(=O)CSC2c2ccc(Cl)cc2Cl)cc1 (stereo not drawn) [CBK025673] | 105 | 
CCSc1nnc2c(n1)OC(C)Nc1ccccc1-2 (stereo not drawn) [CBK025684] | 102 | 
FC(F)c1cc(-c2ccccc2)n2ncnc2n1 [CBK025714] | 87.3 | 
CCOC(=O)C(NC(=O)CC)(Nc1cc(C)on1)C(F)(F)F (stereo not drawn) [CBK025721] | 117 | 
CCOC(=O)N1C(=O)c2ccccc2NC1(C(F)(F)F)C(F)(F)F [CBK025725] | 102 | 
Cc1ccc(C(=O)n2c(=S)nc3ccccn32)cc1 [CBK025729] | 91.9 | 
Nc1ncn(Cc2ccccc2)c2nc(SCc3ccccc3)nc1-2 [CBK025744] | 106 | 
CC1CCC/C(=N\NC(=O)C2C3CCCCC32)C1 (stereo not drawn) [CBK025750] | 116 | 
COc1ccc(/C=N/Nc2nc(OC)nc(N3CCOCC3)n2)cc1 [CBK025751] | 91.6 | 
Cc1cc(C)n2c(SCc3ccccc3)nnc2n1 [CBK025780] | 82 | 
COc1ccc(Cl)cc1NS(=O)(=O)N(C)C [CBK025794] | 90.6 | 
Cc1cc(C)n(CCOc2nonc2N)n1 [CBK025818] | 117 | 
COC(=O)C#CCNc1cc(Cl)ccc1Cl [CBK025852] | 57.6 | 
CC(CN(C)C)C(=O)c1ccsc1 (stereo not drawn) [CBK025906] | 93 | 
CN(C)c1nc(Cl)nc(N(C)C#N)n1 [CBK025922] | 87.7 | 
Clc1cc(Cl)c2[nH]c3c(c2c1)CCc1nonc1-3 [CBK025929] | 102 | 
Cc1cc(Sc2nc[nH]n2)c2c(Cl)ccc(Cl)c2n1 [CBK025959] | 109 | 
CSc1nnc2c(n1)[nH]c1ccccc12 [CBK025967] | 96.6 | 

Compound | viability at 28.5 h, 10 µM [%] | viability at 28.5 h, 10 µM (bulk resorufin, single well) [%]
Cc1cc(C)c2c(N)nc(N)nc2n1 [CBK025968] | 105 | 
Fc1ccc2c(-c3ccccc3)noc2c1 [CBK025975] | 86.8 | 
Nc1ncc(CCCN2CCOCC2)c(N)n1 [CBK025981] | 125 | 
CN1C2CCC1CC(OC(=O)c1cccnc1)C2 (stereo not drawn) [CBK026000] | 100 | 
CCn1c(C)nn(-c2nc3c(Cl)cccc3s2)c1=O [CBK026010] | 100 | 
Cc1ccc(Nc2nc(O)ns2)cc1 [CBK026011] | 81 | 
Oc1nsnc1-c1ccccc1 [CBK026014] | 95 | 
O=C1CSC2(C(=O)Nc3ccccc32)N1c1ccc([N+](=O)[O-])cc1 (stereo not drawn) [CBK026035] | 93.5 | 
O=C(Nc1nc2ccc(Br)cc2s1)C1CC1 [CBK026046] | 108 | 
O=C(Cn1cnnn1)N1CCN(Cc2ccccc2)CC1 [CBK026053] | 85.5 | 
CS(=O)(=O)c1nnn(CC#N)n1 [CBK026075] | 90 | 
COc1cccc2c(O)cnnc12 [CBK026139] | 87.2 | 
COc1ccc(-c2nc3ccccc3s2)cc1O [CBK026156] | 91.6 | 
Cc1nnc(SCCOc2ccc(Cl)c(C)c2)s1 [CBK026160] | 89.9 | 
NC(=O)c1nnc2ccc(Cl)cc2c1N [CBK026161] | 89.9 | 
NC(=O)CSc1nnc(-c2ccncc2)[nH]1 [CBK026179] | 107 | 
NC(=O)C[S+]([O-])C(c1ccccc1)c1ccccc1 (stereo not drawn) [CBK026184] |  | 102
COc1cc2nnnn2c(-c2ccccc2)n1 [CBK026189] | 102 | 
CN1CCN(C2Cc3ccccc3Sc3c(O)cccc32)CC1 (stereo not drawn) [CBK026200G] | 98 | 
CNCc1ccccc1Sc1cccc(OC)c1 [CBK026207C] | 103 | 
CCN(CC)C(=O)CSc1nnc[nH]1 [CBK026212] | 93.3 | 
c1ccc(CSc2nnc(-c3ccco3)o2)cc1 [CBK026283] | 106 | 
Nc1nnc(CCS(=O)(=O)c2ccc(Br)cc2)s1 [CBK026286] | 109 | 
C/C(=N\NC(=O)CSCc1ccccc1Br)c1cccc([N+](=O)[O-])c1 [CBK026344] | 95.9 | 
Brc1ccc(NCc2ccccn2)cc1 [CBK026347] | 104 | 
Cc1ccsc1CN1CCCCC1CO (stereo not drawn) [CBK026348] | 107 | 

Compound | viability at 28.5 h, 10 µM [%] | viability at 28.5 h, 10 µM (bulk resorufin, single well) [%]
Nc1nnc(SCc2ccc(Br)cc2)s1 [CBK026356] | 109 | 
Brc1ccc(CSc2nc[nH]n2)cc1 [CBK026361] | 85.3 | 
COc1ccc(OCCCOc2ccccc2C(C)C)cc1 [CBK026366] | 90.8 | 
C(=N\N1CCOCC1)/c1ccc2c(c1)OCO2 [CBK026446] | 108 | 
CC(=O)Nc1cc(I)cc(C(=O)O)c1 [CBK026452G] | 104 | 
CC(=O)N1c2ccccc2C(C)(c2ccc(Br)cc2)CC1(C)C (stereo not drawn) [CBK026461] | 95.8 | 
N#CC1CCCc2c1[nH]c1ccc(Br)cc21 (stereo not drawn) [CBK026475] | 64.7 | 
O=C(O)C1Nc2ccc(Br)cc2C2C=CCC12 (stereo not drawn) [CBK026482] | 92.1 | 
Cc1cn(S(=O)(=O)c2ccc(Br)cc2)cn1 [CBK026488] | 97.3 | 
Fc1ccc(SCCc2ccccn2)cc1 [CBK026491G] | 82.9 | 
Cc1cn(S(=O)(=O)c2ccc(Cl)cc2)cn1 [CBK026492] | 113 | 
Cc1cc(C)n(-c2ccccc2O)n1 [CBK026493] | 102 | 
CSc1nnc(-c2ccc(Br)cc2)o1 [CBK026502] | 91.9 | 
CC(C)NC(=O)c1ccccc1Br [CBK026505] | 86.2 | 
Nc1nc(N)n(-c2ccccc2)n1 [CBK026515] | 104 | 
COc1ccc2nc(C(=O)O)sc2c1 [CBK026523N] | 88.4 | 
O=c1[nH]c2cc(Cl)c(Br)nc2[nH]1 [CBK026531] | 76.9 | 
O=c1[nH]cnc2ccc(Br)cc12 [CBK026537] | 93.7 | 
CC(C)c1ccc(SCCc2ccccn2)cc1 [CBK026575C] | 88.8 | 
CCCCN(/C=N/S(=O)(=O)c1ccccc1)CCCC [CBK026576] | 92.2 | 
CCN(CC)CCN(C)Cc1ccccc1Br [CBK026593] | 92.8 | 
CN(C)CCP(=O)(c1ccccc1)c1ccccc1 [CBK026596] | 109 | 
N#CCCNCC1COc2ccccc2O1 (stereo not drawn) [CBK026615] | 97.7 | 
Cn1c(=O)n(CC(=O)O)c(=O)c2c1nc(Br)n2Cc1ccccc1 [CBK026617] | 94.8 | 
